The source made the active and inactive calls.
Assays:
cells [1] = format: functional
[2] = A Cell Based Secondary Assay to Explore Cytotoxicity in THP-1 Cells of Compounds that Modulate Mycobacterium tuberculosis in Media Containing Glycerol versus Media without Glycerol (2).; format: functional
Nonstructural protein 1 = Nonstructural protein 1 (Influenza A virus, UniProt Q194T2); format: functional, Influenza A virus (A/California/07/2009(H1N1))
Insulin-degrading enzyme [3] = biological target: T1, Insulin-degrading enzyme (Homo sapiens, UniProt P14735); experiment: recombinant IDE activation, cell-free – biochemical, fluorescence polarization, counter-screen for IDE activator project, dose response (AID 588681)
T1 sequence (P14735 whole entry): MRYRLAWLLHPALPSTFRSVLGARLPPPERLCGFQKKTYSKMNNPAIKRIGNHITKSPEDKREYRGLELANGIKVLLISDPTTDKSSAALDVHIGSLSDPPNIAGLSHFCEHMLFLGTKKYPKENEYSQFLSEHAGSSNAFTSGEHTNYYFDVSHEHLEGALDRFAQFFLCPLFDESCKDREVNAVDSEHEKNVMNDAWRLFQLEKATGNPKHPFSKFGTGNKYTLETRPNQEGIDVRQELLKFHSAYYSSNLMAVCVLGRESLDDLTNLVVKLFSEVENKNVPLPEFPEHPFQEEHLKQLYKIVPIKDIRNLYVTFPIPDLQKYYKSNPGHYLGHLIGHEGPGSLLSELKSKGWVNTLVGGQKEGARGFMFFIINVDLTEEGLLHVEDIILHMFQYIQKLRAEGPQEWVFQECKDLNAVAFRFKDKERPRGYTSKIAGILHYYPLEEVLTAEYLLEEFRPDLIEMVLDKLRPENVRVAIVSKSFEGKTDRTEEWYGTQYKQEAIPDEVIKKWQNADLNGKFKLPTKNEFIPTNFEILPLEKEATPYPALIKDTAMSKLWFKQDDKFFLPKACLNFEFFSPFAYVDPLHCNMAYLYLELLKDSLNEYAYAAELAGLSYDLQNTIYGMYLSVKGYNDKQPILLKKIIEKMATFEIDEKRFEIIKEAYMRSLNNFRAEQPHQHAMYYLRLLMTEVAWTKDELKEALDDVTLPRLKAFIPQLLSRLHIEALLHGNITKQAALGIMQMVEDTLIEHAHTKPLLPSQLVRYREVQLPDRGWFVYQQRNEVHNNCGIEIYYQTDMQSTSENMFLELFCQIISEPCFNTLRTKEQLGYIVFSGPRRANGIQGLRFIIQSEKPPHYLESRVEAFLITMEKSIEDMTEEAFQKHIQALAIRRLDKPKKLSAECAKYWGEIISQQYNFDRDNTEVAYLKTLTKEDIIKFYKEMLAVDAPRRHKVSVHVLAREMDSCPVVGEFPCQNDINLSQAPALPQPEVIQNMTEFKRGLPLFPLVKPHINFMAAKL

Insulin-degrading enzyme [4] = biological target: T1, Insulin-degrading enzyme; experiment: cellular IDE activation of Abeta substrate cleavage – fluorescence polarization, HEK cells, dose response (AID 588439); format: functional, cell-based
[5] = biological target: T2, Histone-lysine N-methyltransferase NSD2 (Homo sapiens, UniProt O96028); format: biochemical
T2 sequence (O96028 whole entry): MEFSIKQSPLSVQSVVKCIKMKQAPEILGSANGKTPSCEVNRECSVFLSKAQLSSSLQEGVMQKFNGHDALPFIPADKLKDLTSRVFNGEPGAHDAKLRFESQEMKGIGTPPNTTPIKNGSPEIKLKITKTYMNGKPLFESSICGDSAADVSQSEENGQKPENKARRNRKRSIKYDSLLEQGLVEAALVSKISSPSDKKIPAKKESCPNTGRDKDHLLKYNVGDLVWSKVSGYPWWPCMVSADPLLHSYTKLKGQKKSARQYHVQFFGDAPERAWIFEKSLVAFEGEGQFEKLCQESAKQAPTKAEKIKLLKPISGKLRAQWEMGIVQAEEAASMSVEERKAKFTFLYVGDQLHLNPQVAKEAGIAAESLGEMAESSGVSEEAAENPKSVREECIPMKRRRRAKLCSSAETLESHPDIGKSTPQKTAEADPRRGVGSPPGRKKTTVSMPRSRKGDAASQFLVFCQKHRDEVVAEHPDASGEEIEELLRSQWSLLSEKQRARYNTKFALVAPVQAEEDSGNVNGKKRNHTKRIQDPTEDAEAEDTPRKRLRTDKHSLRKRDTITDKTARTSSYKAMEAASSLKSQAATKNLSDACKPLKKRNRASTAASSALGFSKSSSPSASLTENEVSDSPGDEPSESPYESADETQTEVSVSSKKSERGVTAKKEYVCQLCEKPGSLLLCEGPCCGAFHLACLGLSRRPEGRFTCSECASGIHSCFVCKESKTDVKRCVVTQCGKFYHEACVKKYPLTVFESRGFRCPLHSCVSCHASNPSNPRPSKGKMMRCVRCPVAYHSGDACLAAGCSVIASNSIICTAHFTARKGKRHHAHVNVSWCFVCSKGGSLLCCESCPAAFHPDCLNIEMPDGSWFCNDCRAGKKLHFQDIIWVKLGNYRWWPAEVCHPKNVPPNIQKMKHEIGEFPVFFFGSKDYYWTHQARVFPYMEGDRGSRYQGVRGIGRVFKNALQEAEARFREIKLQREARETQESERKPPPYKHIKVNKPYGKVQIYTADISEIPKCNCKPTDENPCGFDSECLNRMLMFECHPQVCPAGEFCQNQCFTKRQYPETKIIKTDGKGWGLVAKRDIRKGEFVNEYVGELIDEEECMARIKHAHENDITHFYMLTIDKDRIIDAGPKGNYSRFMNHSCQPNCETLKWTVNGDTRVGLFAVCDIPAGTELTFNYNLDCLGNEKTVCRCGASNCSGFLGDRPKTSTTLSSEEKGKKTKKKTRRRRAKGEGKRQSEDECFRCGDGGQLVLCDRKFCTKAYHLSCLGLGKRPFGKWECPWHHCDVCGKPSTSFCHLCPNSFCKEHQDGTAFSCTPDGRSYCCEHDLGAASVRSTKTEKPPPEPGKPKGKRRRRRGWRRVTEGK

[6] = biological target: Ras and Rab interactor 1/Tyrosine-protein kinase ABL1 (Homo sapiens, UniProt P00519+Q13671); format: functional;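 also: biochemical TR-FRET dose-response test measuring inhibition of binding between Rin1 and Abl proteins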
[7] = biological target: Potassium voltage-gated channel subfamily KQT member 2 (Rattus norvegicus, UniProt O88943); experiment: blockers of KCNQ2 channel current – cell-based, automated electrophysiology, set II, rat KCNQ2, dose response (AID 588637); format: functional
[8] = biological target: G-protein coupled receptor 55 (Homo sapiens, UniProt Q9Y2T6); experiment: inhibition of LPI-stimulated GPR55 beta-arrestin translocation – imaging, U2OS, beta-arrestin-GFP, LPI agonist, primary screen (AID 2013); format: functional;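 also: antagonist potency measured as reduced agonist-driven arrestin aggregation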
Prothrombin = Prothrombin (Bos taurus, UniProt P00735); experiment: thrombin protease inhibitors – biochemical, fluorescence polarization, uHTS hits, dose response (AID 602369); format: functional
[9] = biological target: T3, Oxysterols receptor LXR-beta (Homo sapiens, UniProt P55055); format: functional, cell-based;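 also: Cell-based luminescence dose-response assay of agonist activity at LXR, run as a confirmatory counterscreen to a daf-12 agonist screen; HEK293 cells with Gal4-LXR fusion and GAL4-driven luciferase reporter; agonist potency from rising luciferase signal of a Gal4-LXR reporter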
T3 sequence (P55055 whole entry): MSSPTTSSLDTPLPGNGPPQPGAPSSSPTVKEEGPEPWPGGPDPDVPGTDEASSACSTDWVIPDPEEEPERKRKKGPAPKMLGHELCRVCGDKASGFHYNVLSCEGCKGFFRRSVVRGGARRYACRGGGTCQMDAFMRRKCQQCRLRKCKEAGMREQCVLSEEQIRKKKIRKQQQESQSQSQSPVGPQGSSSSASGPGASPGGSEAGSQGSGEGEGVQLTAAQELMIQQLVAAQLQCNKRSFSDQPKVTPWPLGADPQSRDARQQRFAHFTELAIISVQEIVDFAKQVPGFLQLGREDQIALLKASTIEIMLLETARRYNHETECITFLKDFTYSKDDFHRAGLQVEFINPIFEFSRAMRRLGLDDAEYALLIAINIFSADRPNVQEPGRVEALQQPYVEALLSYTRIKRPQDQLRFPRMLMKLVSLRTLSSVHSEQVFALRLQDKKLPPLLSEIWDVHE

A-375 = experiment: proliferation inhibition in MITF-low A375 cells – cell-based, cherry-pick samples, set 2, counter-screen for MITF modulator project, dose response (AID 540335); format: functional; conditions: Homo sapiens
cells [10] = experiment: cells
HEK293 [11] = experiment: cells; conditions: Homo sapiens
HEK293 [12] = experiment: cells; conditions: Homo sapiens; remark: listed apart in the source
[13] = biological target: 72 kDa type IV collagenase (Homo sapiens, UniProt P08253); experiment: Dose Response validation of uHTS RPN11 inhibitor hits using a MMP-2 Fluorescence assay.; format: functional
[14] = biological target: T4, Microphthalmia-associated transcription factor (Homo sapiens, UniProt O75030); experiment: reducers of TRPM1 reporter luminescence, concentration series – cell-based, SK-MEL-5, cherry-picked, set 3, MITF inhibitor project, dose response (AID 493073); format: functional;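 also: SK-MEL-5 melanoma cells with luciferase driven by the MITF target TRPM1 promoter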
T4 sequence (O75030 whole entry): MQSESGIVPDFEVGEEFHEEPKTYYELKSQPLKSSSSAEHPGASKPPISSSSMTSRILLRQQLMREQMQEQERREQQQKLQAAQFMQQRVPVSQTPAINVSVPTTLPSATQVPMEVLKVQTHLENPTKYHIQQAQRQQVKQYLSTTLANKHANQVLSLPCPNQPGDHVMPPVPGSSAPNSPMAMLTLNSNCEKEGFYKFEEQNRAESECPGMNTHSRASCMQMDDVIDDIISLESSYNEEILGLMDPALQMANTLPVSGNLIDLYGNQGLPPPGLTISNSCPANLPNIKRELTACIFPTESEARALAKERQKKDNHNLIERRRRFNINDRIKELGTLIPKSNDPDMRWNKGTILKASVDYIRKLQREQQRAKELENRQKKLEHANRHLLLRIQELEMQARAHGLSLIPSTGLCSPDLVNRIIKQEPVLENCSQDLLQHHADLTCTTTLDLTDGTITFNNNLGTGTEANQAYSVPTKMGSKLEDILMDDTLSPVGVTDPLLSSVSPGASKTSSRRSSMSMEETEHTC

[15] = Trypanosoma cruzi growth suppression in host cells – NIH3T3 host cells, beta-gal luminescence, confirmation (AID 2044); format: functional, cell-based;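 also: intracellular parasites grown in NIH/3T3 mouse fibroblasts as host cells; luminescent beta-galactosidase reporter signal from transgenic T. cruzi replicating inside host cells; inhibitors lower the luminescence signal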
INS1 = experiment: INS-1E survival protection against cytokine death – cell-based, luminescence, retest, dose response (AID 449756); format: functional; conditions: Rattus norvegicus;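 also: cell death triggered by IL-1 beta plus TNF-alpha plus IFN-gamma mixture; protective hits raise ATP signal compared with cytokine alone wells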
[16] = biological target: T5, DNA repair protein RAD52 homolog (Homo sapiens, UniProt P43351); format: functional, biochemical
T5 sequence (P43351 whole entry): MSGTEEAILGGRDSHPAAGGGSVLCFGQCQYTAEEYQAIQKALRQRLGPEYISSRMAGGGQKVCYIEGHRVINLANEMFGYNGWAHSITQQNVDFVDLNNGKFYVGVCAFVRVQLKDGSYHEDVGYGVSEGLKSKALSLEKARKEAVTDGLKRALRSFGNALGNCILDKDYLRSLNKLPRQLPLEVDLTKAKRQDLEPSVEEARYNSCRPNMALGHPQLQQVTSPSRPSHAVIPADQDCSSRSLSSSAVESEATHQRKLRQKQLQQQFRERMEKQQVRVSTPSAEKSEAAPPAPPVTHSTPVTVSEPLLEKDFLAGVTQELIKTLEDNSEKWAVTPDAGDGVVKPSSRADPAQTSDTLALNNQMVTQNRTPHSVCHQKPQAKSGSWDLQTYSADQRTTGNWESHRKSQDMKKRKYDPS

[17] = biological target: DNA (cytosine-5)-methyltransferase 1 (Homo sapiens, UniProt P26358); experiment: inhibition of DNA methylation by DNMT1 – biochemical, fluorescent molecular beacon, confirmation (AID 602386); format: functional
[18] = biological target: 26S proteasome non-ATPase regulatory subunit 14 (Homo sapiens, UniProt O00487); experiment: inhibition of proteasome subunit RPN11 – biochemical, fluorescence polarization, uHTS hits, confirmation (AID 602368); format: functional
[19] = biological target: Adenosylmethionine-8-amino-7-oxononanoate aminotransferase (Mycobacterium tuberculosis, UniProt P9WQ81); experiment: Mycobacterium tuberculosis BioA enzyme inhibitor Measured in Biochemical System Using Plate Reader - 2163-02_Inhibitor_Dose_CherryPick_Activity.; format: functional, Mycobacterium tuberculosis UT205
[20] = biological target: T6, Low molecular weight phosphotyrosine protein phosphatase (Homo sapiens, UniProt P24666); format: functional; conditions: read-out: IC50_Mean
T6 sequence (P24666 whole entry): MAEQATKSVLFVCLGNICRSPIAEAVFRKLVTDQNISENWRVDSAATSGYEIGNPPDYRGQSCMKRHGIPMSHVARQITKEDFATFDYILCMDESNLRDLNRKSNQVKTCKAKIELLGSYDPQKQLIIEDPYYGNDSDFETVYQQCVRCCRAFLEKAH

[21] = biological target: T6, Low molecular weight phosphotyrosine protein phosphatase; format: functional; conditions: read-out: IC50_Mean; remark: listed apart in the source

Chain of Ras and Rab interactor 1/Tyrosine-protein kinase ABL1 (P00519 whole entry): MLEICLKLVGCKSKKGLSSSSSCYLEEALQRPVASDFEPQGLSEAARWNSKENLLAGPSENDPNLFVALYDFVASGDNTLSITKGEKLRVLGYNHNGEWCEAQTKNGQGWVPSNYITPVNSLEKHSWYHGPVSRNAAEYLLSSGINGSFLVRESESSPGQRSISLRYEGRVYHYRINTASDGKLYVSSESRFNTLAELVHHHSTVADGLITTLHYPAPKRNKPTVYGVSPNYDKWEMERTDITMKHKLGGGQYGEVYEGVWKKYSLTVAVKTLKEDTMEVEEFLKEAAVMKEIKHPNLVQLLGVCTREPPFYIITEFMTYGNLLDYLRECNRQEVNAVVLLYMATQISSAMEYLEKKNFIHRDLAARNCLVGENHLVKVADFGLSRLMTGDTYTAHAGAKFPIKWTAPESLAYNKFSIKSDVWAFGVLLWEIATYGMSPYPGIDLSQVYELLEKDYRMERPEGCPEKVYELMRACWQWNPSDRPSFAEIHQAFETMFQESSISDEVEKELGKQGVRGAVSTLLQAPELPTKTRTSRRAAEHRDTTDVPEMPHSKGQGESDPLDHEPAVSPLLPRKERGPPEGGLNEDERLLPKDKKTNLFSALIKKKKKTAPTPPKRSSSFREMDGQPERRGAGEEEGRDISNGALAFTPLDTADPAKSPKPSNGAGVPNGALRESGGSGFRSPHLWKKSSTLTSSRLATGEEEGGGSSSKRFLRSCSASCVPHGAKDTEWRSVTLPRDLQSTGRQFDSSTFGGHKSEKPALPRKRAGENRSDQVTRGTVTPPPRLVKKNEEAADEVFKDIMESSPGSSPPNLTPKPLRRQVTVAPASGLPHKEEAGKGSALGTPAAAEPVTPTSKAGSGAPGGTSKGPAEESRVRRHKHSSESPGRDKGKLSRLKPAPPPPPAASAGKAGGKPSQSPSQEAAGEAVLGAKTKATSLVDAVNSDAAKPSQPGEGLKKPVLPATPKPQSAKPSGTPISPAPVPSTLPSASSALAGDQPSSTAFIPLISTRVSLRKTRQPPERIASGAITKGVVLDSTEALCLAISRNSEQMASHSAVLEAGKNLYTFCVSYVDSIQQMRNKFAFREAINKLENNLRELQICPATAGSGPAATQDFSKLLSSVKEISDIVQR
Chain of Ras and Rab interactor 1/Tyrosine-protein kinase ABL1 (Q13671 whole entry): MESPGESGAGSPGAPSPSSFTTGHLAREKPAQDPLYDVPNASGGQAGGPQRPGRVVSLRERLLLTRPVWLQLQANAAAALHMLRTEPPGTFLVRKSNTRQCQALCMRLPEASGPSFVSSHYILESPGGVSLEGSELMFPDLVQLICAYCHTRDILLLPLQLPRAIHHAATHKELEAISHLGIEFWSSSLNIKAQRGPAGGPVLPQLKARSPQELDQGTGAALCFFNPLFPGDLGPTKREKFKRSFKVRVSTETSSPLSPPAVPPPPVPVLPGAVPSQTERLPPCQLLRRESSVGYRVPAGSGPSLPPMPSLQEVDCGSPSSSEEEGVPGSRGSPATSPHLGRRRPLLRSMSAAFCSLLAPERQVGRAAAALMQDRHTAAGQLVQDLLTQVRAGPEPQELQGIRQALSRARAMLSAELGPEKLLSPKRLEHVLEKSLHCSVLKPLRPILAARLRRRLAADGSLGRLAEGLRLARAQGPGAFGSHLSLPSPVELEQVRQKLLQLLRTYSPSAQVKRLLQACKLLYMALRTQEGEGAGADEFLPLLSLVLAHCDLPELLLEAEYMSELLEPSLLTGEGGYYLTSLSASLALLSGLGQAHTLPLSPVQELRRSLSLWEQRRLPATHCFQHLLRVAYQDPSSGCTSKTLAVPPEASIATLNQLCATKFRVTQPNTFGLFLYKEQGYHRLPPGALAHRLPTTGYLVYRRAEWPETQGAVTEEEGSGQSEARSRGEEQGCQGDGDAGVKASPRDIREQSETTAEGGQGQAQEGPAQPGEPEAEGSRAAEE
Chain of 26S proteasome non-ATPase regulatory subunit 14 (O00487 whole entry): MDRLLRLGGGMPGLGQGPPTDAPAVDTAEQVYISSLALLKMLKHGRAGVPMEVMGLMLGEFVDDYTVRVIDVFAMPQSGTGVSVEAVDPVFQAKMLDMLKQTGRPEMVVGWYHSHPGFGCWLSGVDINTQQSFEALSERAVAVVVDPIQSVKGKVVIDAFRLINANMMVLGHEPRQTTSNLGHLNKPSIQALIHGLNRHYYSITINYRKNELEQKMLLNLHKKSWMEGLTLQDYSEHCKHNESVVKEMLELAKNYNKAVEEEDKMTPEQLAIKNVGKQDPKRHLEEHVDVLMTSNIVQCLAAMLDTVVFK
Chain of G-protein coupled receptor 55 (Q9Y2T6 whole entry): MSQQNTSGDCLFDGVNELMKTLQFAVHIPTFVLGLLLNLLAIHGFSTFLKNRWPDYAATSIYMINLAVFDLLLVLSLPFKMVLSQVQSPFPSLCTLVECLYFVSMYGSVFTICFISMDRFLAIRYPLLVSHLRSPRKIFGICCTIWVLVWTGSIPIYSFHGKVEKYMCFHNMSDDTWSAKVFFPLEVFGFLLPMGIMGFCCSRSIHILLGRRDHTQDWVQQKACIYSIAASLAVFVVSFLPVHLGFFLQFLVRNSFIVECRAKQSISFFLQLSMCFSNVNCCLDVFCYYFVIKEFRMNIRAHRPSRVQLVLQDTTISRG
Chain of Nonstructural protein 1 (Q194T2 whole entry): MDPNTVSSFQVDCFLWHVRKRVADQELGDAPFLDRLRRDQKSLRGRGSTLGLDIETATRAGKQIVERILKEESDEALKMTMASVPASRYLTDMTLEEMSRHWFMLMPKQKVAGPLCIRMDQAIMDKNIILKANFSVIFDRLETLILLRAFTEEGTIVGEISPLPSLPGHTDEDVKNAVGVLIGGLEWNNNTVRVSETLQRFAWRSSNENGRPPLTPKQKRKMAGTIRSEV
Chain of DNA (cytosine-5)-methyltransferase 1 (P26358 whole entry): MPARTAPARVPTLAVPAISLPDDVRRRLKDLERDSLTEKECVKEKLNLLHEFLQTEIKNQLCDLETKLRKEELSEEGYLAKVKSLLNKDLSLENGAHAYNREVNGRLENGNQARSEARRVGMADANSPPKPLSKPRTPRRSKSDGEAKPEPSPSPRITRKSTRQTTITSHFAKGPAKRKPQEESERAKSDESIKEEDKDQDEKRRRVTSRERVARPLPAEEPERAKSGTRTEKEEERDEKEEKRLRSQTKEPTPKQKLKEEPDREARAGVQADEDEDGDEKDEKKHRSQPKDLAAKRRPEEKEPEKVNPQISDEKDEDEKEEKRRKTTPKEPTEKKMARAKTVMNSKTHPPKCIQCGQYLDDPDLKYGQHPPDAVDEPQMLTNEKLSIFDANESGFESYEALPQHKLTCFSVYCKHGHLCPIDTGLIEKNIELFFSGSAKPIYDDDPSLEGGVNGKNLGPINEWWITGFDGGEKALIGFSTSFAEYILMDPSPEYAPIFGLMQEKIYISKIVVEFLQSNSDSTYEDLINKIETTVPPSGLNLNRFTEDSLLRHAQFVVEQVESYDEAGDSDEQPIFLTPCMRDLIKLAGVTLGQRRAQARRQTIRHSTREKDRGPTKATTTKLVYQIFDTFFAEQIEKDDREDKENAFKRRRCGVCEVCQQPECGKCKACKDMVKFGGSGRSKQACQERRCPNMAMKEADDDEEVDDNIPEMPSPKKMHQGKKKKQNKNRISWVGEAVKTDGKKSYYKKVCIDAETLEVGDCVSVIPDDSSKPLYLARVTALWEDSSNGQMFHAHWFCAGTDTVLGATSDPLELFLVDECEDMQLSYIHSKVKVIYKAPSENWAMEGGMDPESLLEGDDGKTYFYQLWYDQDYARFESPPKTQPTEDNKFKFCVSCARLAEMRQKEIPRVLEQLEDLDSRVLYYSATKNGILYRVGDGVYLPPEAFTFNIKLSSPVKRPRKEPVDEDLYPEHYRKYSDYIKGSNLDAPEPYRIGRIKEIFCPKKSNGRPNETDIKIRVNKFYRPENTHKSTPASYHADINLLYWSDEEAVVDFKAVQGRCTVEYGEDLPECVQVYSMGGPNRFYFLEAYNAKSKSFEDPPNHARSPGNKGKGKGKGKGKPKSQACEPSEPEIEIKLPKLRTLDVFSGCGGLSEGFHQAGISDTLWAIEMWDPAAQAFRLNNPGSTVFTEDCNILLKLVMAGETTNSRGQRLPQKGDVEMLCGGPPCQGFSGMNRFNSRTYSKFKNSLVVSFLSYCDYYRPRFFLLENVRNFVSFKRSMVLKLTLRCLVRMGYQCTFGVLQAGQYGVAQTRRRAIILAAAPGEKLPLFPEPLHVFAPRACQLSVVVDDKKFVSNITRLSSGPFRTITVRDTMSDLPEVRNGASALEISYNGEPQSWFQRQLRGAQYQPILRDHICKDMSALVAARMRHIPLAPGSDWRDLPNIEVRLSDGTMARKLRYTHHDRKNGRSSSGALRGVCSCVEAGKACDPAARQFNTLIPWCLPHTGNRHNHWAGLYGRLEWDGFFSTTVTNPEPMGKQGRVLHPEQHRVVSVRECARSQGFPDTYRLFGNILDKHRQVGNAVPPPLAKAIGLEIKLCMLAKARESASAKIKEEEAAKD
Chain of 72 kDa type IV collagenase (P08253 whole entry): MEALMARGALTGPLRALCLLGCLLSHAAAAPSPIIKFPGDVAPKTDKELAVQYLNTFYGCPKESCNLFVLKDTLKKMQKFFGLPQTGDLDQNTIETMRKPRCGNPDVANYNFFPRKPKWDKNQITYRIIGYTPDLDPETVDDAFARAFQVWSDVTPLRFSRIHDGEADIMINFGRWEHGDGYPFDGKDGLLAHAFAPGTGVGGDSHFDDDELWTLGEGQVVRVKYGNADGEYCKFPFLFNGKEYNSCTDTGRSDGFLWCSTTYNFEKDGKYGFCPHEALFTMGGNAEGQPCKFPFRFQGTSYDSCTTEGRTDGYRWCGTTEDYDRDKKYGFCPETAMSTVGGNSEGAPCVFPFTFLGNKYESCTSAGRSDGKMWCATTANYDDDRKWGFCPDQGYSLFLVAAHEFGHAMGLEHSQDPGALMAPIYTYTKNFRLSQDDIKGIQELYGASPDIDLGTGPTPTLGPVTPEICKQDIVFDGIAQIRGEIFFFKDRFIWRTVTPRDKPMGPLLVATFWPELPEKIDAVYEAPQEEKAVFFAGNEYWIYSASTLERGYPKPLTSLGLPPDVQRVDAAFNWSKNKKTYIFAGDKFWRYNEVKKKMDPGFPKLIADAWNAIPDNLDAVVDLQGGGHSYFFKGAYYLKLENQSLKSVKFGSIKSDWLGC

SMILES: CCOC(=O)COn1c2c(c3c4no[n+]([O-])c4ccc31)CCCC2
- IC50 (cells [1]): 5.49 µM (active)
- CC50 [2]: > 100 µM (active)

SMILES: Cc1[nH]c(=O)[nH]c1C(=O)CCCCC(=O)O
- IC50 (Nonstructural protein 1): 2.14 µM (active)
- EC50 (Insulin-degrading enzyme [3]): 16.9 µM (inactive)
- EC50 (Insulin-degrading enzyme [4]): 12.2 µM (inactive)
- AC50 [5]: 10.2 µM (active)
- IC50 [6]: 0.0174 µM (active)

SMILES: COc1ccc(Cl)cc1C(=O)NC(=S)Nc1ccccc1N1CCOCC1
- IC50 [7]: 5.98 µM (active)
- IC50 [8]: 0.825 µM (active)

SMILES: Cc1cc(C)c2c(N)c3cccc(C)c3nc2n1
- IC50 (Prothrombin): > 100 µM (inactive)
- EC50 [9]: > 67.5 µM (inactive)
- AC50 (A-375): 3.39 µM (active)
- EC50 (cells [10]): > 67.5 µM (inactive)
- EC50 (HEK293 [11]): > 2.21 µM (active)
- EC50 (HEK293 [12]): > 59.6 µM (inactive)
- IC50 [13]: > 100 µM (inactive)
- AC50 [14]: 3.21 µM (active)
- EC50 [15]: 1.27 µM (active)
- AC50 (INS1): 1.62 µM (active)
- AC50 [16]: 2.24 µM (active)
- IC50 [17]: > 99 µM (inactive)
- IC50 [18]: 13.1 µM (active)

SMILES: CCCC(=O)Nc1cccc(NC(=O)c2ccc(C)c([N+](=O)[O-])c2)c1
- AC50 [19]: 1.96 µM (active)

SMILES: Oc1c(/C=N/c2ccc(Cl)cc2)cnn1-c1cccc(Cl)n1
- IC50 [20]: 15.4 µM (active)
- IC50 [21]: 17.1 µM (active)

Source: ChEMBL document CHEMBL1201862, “PubChem BioAssay data set” (2004)
